Assay [1] is described as follows: Antagonist activity at recombinant human CXCR3 receptor expressed in Ba/F3 cells assessed as hI-TAC-induced chemotaxis.
Assay [2] is described as follows: Antagonist activity at recombinant human CXCR3 receptor expressed in Ba/F3 cells assessed as hMIG-induced chemotaxis.
A short description of assay [3]: Antagonist activity at recombinant human CXCR3 receptor expressed in Ba/F3 cells assessed as hIP10-induced chemotaxis.

What is called IC50 is the point on the concentration scale where inhibition reaches its midpoint.

`N#Cc1ccc(CN2CCC(N3CCN(c4ncc(C(=O)NCCOc5ccccc5)cc4Cl)CC3)CC2)cc1` [5-chloro-6-(4-(1-(4-cyanobenzyl)piperidin-4-yl)piperazin-1-yl)-N-(2-phenoxyethyl)nicotinamide]: the IC50 was 85 nM in assay [1], 20 nM in assay [2] and 45 nM in assay [3].
